According to patent US20220339122A1, “METHODS FOR THE TREATMENT OF DISEASES ASSOCIATED WITH DYSREGULATED ACTIVATION AND RECRUITMENT OF NEUTROPHILS” (Chang Gung University, priority 2021, published 2022):

What was measured:
Type in all cases: biochemical
Conditions in all cases: 1-10 μM bletinib or 0.1-3 μM PP2; 125 μM ATP; concentration-dependent
[1] = molecular target: Lyn (Homo sapiens, UniProt P07948); assay: Cell-free ADP-Glo kinase assay, Lyn
Procedure: (§1) The kinase activity of SFKs was assessed using an ADP-Glo kinase assay kit (Promega, Fitchburg, USA) according to manufacturer instructions. […] The ADP-Glo reagent was used to end the kinase reaction and remove the remnant ATP; next, the kinase, which converted ADP to ATP, detection reagent was added and incubated for 30 min. Luciferin/luciferase luminescence was determined on an Infinite 200 Pro (Tecan, Switzerland).

[2] = molecular target: Src (Homo sapiens, UniProt P12931); assay: Cell-free ADP-Glo kinase assay, Src
Chain of Src (P12931 whole entry): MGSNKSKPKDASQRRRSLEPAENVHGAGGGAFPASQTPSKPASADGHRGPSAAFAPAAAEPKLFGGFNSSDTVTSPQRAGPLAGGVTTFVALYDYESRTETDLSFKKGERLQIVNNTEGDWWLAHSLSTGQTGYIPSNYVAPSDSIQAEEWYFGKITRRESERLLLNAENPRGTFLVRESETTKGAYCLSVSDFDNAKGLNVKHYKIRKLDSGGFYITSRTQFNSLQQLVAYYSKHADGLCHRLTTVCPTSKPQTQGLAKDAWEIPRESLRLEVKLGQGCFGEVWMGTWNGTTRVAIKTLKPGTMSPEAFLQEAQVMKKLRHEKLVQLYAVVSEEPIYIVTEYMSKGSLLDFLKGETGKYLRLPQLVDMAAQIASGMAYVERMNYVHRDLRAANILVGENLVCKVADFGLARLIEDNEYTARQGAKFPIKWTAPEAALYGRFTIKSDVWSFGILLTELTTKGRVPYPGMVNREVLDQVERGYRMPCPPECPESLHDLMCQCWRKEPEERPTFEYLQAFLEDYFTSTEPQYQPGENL
Procedure: as §1

[3] = molecular target: Fgr (Homo sapiens, UniProt P09769); assay: Cell-free ADP-Glo kinase assay, Fgr
Chain of Fgr (P09769 whole entry): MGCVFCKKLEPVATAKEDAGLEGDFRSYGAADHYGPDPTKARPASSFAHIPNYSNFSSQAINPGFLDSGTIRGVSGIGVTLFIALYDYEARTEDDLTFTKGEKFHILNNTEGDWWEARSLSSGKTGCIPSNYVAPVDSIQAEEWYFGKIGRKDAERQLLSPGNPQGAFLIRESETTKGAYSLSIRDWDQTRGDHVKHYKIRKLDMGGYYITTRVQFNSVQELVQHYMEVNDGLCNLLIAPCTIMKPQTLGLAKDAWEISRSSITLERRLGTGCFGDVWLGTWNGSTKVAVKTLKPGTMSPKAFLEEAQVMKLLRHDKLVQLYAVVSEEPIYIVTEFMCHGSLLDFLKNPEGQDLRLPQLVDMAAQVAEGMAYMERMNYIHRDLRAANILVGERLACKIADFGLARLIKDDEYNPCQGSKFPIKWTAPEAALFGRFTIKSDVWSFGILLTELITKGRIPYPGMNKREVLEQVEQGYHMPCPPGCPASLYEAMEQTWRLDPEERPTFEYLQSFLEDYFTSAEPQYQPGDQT
Procedure: as §1

Chain of Lyn (P07948 whole entry): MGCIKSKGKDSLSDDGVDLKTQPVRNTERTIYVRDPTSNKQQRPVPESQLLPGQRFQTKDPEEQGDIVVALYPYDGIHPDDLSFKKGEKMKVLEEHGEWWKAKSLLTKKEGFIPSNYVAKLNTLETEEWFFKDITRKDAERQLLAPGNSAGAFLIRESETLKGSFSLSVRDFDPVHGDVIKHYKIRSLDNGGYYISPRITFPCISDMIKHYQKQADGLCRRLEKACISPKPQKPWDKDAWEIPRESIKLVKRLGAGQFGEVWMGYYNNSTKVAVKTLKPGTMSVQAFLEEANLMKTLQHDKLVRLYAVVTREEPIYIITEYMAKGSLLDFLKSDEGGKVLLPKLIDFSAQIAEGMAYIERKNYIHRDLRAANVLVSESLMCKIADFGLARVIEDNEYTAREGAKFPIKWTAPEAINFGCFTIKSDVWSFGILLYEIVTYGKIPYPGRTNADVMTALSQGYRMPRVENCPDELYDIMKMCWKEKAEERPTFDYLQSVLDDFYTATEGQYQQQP

CC(C)(C)n1nc(-c2ccc(Cl)cc2)c2c(N)ncnc21 [PP2, reference compound]
inhibited: kinase activity of Lyn [1] | kinase activity of Src [2] | kinase activity of Fgr [3]
